Results as given in publication PMC10584882 (Communications Biology, 2023).
Where “and” joins values, the source holds several entries; their conditions need not be identical. Equal values may be shown once. Read-outs that look alike come from different tables or passages of the source.

Experiments:
[1] = tested on: SARS-CoV-2; assay: Cytopathic effect inhibition assay in LC-HK2 cells; format: cell-based; conditions: for CPE inhibition (%): LC-HK2
[2] = target: T1, human CatV (Homo sapiens, UniProt O60911); assay: Cathepsin inhibition test, CatV; format: biochemical; conditions: Fig. S3 panel c, single replicates
T1 construct: made in house

[3] = tested on: SARS-CoV-2; assay: Cytopathic effect inhibition assay in VERO-CCL81 cells; format: cell-based; conditions: for CPE inhibition (%): VERO CCL81
[4] = tested on: LC-HK2 cells; assay: Fluorescence microscopy, S-protein vesicle size in infected LC-HK2 cells; format: cell-based, human; conditions: 1.5 µM, versus control
Procedure: LC-HK2 was cultivated on coverslips (13 mm diameter) to approximately 80% confluence. The cells were pre-treated for 2 h with 1.5 µM of S-Calpeptin diluted in DMEM supplemented with 2.5% FBS. The compounds were removed, and SARS-CoV-2 strain diluted in DMEM supplemented with 2.5% FBS was added to LC-HK2 cells at M.O.I of 0.05, allowing absorption for 1 h. The viral inoculum was removed, and cells were gently washed with PBS without calcium and magnesium. The cells were incubated in the continued presence of 1.5 µM of S-Calpeptin diluted in DMEM supplemented with 2.5% FBS and were examined by fluorescence microscopy at the time points 32, 40, 48, 56, 64 and 72 h post-infection.
For this purpose, the cells were fixed and permeabilized with 3.7% formaldehyde solution (Sigma-Aldrich, F1635) containing 0.2% Triton X-100 in PBS 1×. […] The images were captured using fluorescence range intensity adjusted identically within each experimental series.
Vesicles size quantifications were obtained from 2D maximum projections of Z stacks exported as grayscale TIFs (16-bit depth) using Automated Image Analysis in Zen 2.6 blue software (ZEISS). […]
In the Fluorescence microscopy evaluation, the P-values were generated by unpaired t-test using GraphPad Prism version 8.00 (La Jolla, CA, USA, www.graphpad.com). […]

[5] = target: T2, human CatK (Homo sapiens, UniProt P43235); assay: Cathepsin inhibition test, CatK; format: biochemical
T2 construct: made in house
T2 sequence (P43235 115-329): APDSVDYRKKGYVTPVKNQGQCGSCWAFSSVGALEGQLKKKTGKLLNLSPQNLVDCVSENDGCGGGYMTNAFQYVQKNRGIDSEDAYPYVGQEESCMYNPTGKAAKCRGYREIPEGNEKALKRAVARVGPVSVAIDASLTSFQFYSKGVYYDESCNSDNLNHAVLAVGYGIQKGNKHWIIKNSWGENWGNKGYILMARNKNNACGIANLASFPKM

[6] = target: T3, SARS-CoV-2 M^pro (Severe acute respiratory syndrome coronavirus 2, UniProt P0DTD1); format: biochemical
T3 construct: Initially reported to target the viral main protease (M^pro); made in house
Procedure: In the enzyme inhibition assays, the initial velocities were calculated from the initial linear portions of their curves, assuming steady-state kinetics. IC50 and Ki values were calculated using GraphPad Prism software. Z-FR-AMC (CatK and CatV), Z-RR-AMC (CatB and CatL), and QS1 or Acetyl-VKLQ-AMC (M^pro) substrates were used to monitor reactions. These measurements were done in four independent duplicates or triplicates, respectively.

[7] = tested on: SARS-CoV-2-GFP; assay: microbe, parasite or virus in culture; format: cell-based; conditions: Severe acute respiratory syndrome coronavirus 2, Vero C1008, mean with standard error, read-out: VERO E6 EC50

T1 sequence (O60911 114-334): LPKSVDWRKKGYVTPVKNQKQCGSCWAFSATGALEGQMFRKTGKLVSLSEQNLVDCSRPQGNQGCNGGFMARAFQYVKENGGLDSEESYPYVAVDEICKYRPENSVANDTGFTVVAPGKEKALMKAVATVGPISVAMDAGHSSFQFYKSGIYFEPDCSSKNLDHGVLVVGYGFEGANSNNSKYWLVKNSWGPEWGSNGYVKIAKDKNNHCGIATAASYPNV

CCCC[C@@H](C=O)NC(=O)[C@H](CC(C)C)NC(=O)OCc1ccccc1 [Calpeptin, reference compound]
CPE inhibition (%) ([1]; 0.0000000001 μM, 1e-10 µM): 6.04% | CPE inhibition (%) ([1]; 0.00000001 μM, 10 fM): 8.96% | CPE inhibition (%) ([1]; 0.0000001 μM, 100 fM): 9.11% | CPE inhibition (%) ([1]; 0.001 μM): 0.77% | CPE inhibition (%) ([1]; 0.01 μM): 24.54% | CPE inhibition (%) ([1]; 0.1 μM): 36.51% | CPE inhibition (%) ([1]; 1 μM): 50.4% | CPE inhibition (%) ([1]; 10 μM): 59.73% | inhibition at 1e-12 µM ([1]; Severe acute respiratory syndrome coronavirus 2, LC-HK2, 0.000000000001 μM (first of two lines so printed, r18), read-out: CPE inhibition (%)): 0% | inhibition at 1e-12 µM ([1]; Severe acute respiratory syndrome coronavirus 2, LC-HK2, 0.000000000001 μM (second line, r19), read-out: CPE inhibition (%)): 0% | inhibition at 1e-11 µM ([1]; Severe acute respiratory syndrome coronavirus 2, LC-HK2, 0.00000000001 μM, read-out: CPE inhibition (%)): 0% | inhibition at 1 fM ([1]; Severe acute respiratory syndrome coronavirus 2, LC-HK2, 0.000000001 μM, read-out: CPE inhibition (%)): 0% | inhibition at 10 pM ([1]; Severe acute respiratory syndrome coronavirus 2, LC-HK2, 0.00001 μM, read-out: CPE inhibition (%)): 0% | inhibition at 0.0001 µM ([1]; Severe acute respiratory syndrome coronavirus 2, LC-HK2, 0.0001 μM, read-out: CPE inhibition (%)): 0% | inhibition at 0.01 µM ([1]; Severe acute respiratory syndrome coronavirus 2, LC-HK2, 0.01 μM, read-out: CPE inhibition (%)): 19% | inhibition at 0.1 µM ([1]; Severe acute respiratory syndrome coronavirus 2, LC-HK2, 0.1 μM, read-out: CPE inhibition (%)): 24.4% | inhibition at 1 µM ([1]; Severe acute respiratory syndrome coronavirus 2, LC-HK2, 1 μM, read-out: CPE inhibition (%)): 60.8% | inhibition at 10 µM ([1]; Severe acute respiratory syndrome coronavirus 2, LC-HK2, 10 μM, read-out: CPE inhibition (%)): 52.8% | EC50 ([1]; Severe acute respiratory syndrome coronavirus 2, LC-HK2, CellTiter-Glo, 72 h post-infection, read-out: CPE inhibition EC50): 60 nM | Residual activity (Vi/V0) ([2]; inhibitor 0.010 nM, 10 pM): 0.7492 and 0.8662 and 0.9665 and 0.9783 and 1.034 and 0.8959 and 1.049 and 1.043 | Residual activity (Vi/V0) ([2]; inhibitor 0.018 nM, 18 pM): 1.426 and 1.071 and 0.8111 and 0.946 and 1.016 and 0.7983 and 1.052 and 1.107 | Residual activity (Vi/V0) ([2]; inhibitor 0.032 nM, 32 pM): 0.6155 and 0.7103 and 0.8989 and 0.8852 and 0.9741 and 0.7786 and 1.073 and 1.106 | Residual activity (Vi/V0) ([2]; inhibitor 0.058 nM, 58 pM): 0.4678 and 0.5573 and 0.8821 and 0.907 and 0.9499 and 0.7317 and 1.135 and 1.04 | Residual activity (Vi/V0) ([2]; inhibitor 0.105 nM, 0.000105 µM): 0.3395 and 0.4697 and 0.9391 and 1.0131 and 0.8776 and 0.5515 and 1.047 and 0.9299 | Residual activity (Vi/V0) ([2]; inhibitor 0.189 nM, 0.000189 µM): 0.2218 and 0.3638 and 0.7852 and 0.7629 and 0.7844 and 0.3361 and 0.9055 and 0.7253 | Residual activity (Vi/V0) ([2]; inhibitor 0.340 nM, 0.00034 µM): 0.127 and 0.1861 and 0.5926 and 0.6199 and 0.6546 and 0.1805 and 0.6841 and 0.4951 | Residual activity (Vi/V0) ([2]; inhibitor 0.612 nM, 0.000612 µM): 0.08315 and 0.0899 and 0.6171 and 0.6648 and 0.6032 and 0.1116 and 0.3127 and 0.292 | Residual activity (Vi/V0) ([2]; inhibitor 1.103 nM, 0.001103 µM): 0.07258 and 0.065 and 0.4015 and 0.4879 and 0.4441 and 0.08067 and 0.1763 and 0.1568 | Residual activity (Vi/V0) ([2]; inhibitor 1.985 nM, 0.001985 µM): 0.02995 and 0.03856 and 0.2299 and 0.2925 and 0.2801 and 0.03165 and 0.06168 and 0.07508 | Residual activity (Vi/V0) ([2]; inhibitor 3.572 nM, 0.003572 µM): 0.007933 and 0.009299 and 0.124 and 0.1265 and 0.09125 and 0.0154 and 0.02738 and 0.02841 | Residual activity (Vi/V0) ([2]; inhibitor 6.430 nM, 0.00643 µM): 0.0062 and 0.004492 and 0.03048 and 0.04147 and 0.02591 and 0.007404 and 0.008251 and 0.01699 | Residual activity (Vi/V0) ([2]; inhibitor 11.547 nM, 0.011547 µM): 0.001379 and -0.0006257 and 0.001045 and 0.01451 | inhibition at 0.3125 µM ([3]; Severe acute respiratory syndrome coronavirus 2, VERO CCL81, 0.3125 μM, two experiments, read-out: CPE inhibition (%)): 26.9% | inhibition at 0.625 µM ([3]; Severe acute respiratory syndrome coronavirus 2, VERO CCL81, 0.625 μM, two experiments, read-out: CPE inhibition (%)): 31.8% | inhibition at 1.25 µM ([3]; Severe acute respiratory syndrome coronavirus 2, VERO CCL81, 1.25 μM, two experiments, read-out: CPE inhibition (%)): 41.2% | inhibition at 2.5 µM ([3]; Severe acute respiratory syndrome coronavirus 2, VERO CCL81, 2.5 μM, two experiments, read-out: CPE inhibition (%)): 49.3% | inhibition at 5 µM ([3]; Severe acute respiratory syndrome coronavirus 2, VERO CCL81, 5 μM, two experiments, read-out: CPE inhibition (%)): 61.9% | inhibition at 10 µM ([3]; Severe acute respiratory syndrome coronavirus 2, VERO CCL81, 10 μM, two experiments, read-out: CPE inhibition (%)): 64.6% | EC50 ([3]; Severe acute respiratory syndrome coronavirus 2, VERO-CCL81, CellTiter-Glo, 48 h post-infection, read-out: CPE inhibition EC50): 400 nM | CPE inhibition (%) ([3]; 0.1563 μM, two experiments): 12.75% and 5.21% | CPE inhibition (%) ([3]; 0.3125 μM, two experiments): 21.14% | CPE inhibition (%) ([3]; 0.625 μM, two experiments): 29.81% | CPE inhibition (%) ([3]; 1.25 μM, two experiments): 49.13% | CPE inhibition (%) ([3]; 2.5 μM, two experiments): 33.89% | CPE inhibition (%) ([3]; 5 μM, two experiments): 61.52% | CPE inhibition (%) ([3]; 10 μM, two experiments): 53.9% | impact on vesicle morphology / S-protein vesicle size [4]: no substantial impact on vesicle morphology | Residual activity (Vi/V0) ([5]; Fig. S3 panel a, inhibitor 0.010 nM, single replicates, 10 pM): 0.8228 and 0.7849 and 0.8924 | remaining activity at 10 pM ([5]; Fig. S3 panel a, inhibitor 0.010 nM, single replicates, read-out: Residual activity (Vi/V0)): 79.2% | Residual activity (Vi/V0) ([5]; Fig. S3 panel a, inhibitor 0.018 nM, single replicates, 18 pM): 0.692 and 0.7935 and 0.8793 and 0.9792 | Residual activity (Vi/V0) ([5]; Fig. S3 panel a, inhibitor 0.032 nM, single replicates, 32 pM): 0.6266 and 0.7672 and 0.8012 and 0.8701 | Residual activity (Vi/V0) ([5]; Fig. S3 panel a, inhibitor 0.058 nM, single replicates, 58 pM): 0.6214 and 0.5994 and 0.7911 and 0.9302 | Residual activity (Vi/V0) ([5]; Fig. S3 panel a, inhibitor 0.105 nM, single replicates, 0.000105 µM): 0.4801 and 0.5677 and 0.7764 | Residual activity (Vi/V0) ([5]; Fig. S3 panel a, inhibitor 0.189 nM, single replicates, 0.000189 µM): 0.4602 and 0.558 and 0.5219 and 0.7569 | Residual activity (Vi/V0) ([5]; Fig. S3 panel a, inhibitor 0.340 nM, single replicates, 0.00034 µM): 0.3878 and 0.4931 and 0.523 | remaining activity at 0.00034 µM ([5]; Fig. S3 panel a, inhibitor 0.340 nM, single replicates, read-out: Residual activity (Vi/V0)): 34.5% | Residual activity (Vi/V0) ([5]; Fig. S3 panel a, inhibitor 0.612 nM, single replicates, 0.000612 µM): 0.4226 and 0.3636 and 0.4242 | remaining activity at 0.000612 µM ([5]; Fig. S3 panel a, inhibitor 0.612 nM, single replicates, read-out: Residual activity (Vi/V0)): 40.6% | Residual activity (Vi/V0) ([5]; Fig. S3 panel a, inhibitor 1.103 nM, single replicates, 0.001103 µM): 0.2715 and 0.287 and 0.3208 | remaining activity at 0.001103 µM ([5]; Fig. S3 panel a, inhibitor 1.103 nM, single replicates, read-out: Residual activity (Vi/V0)): 28.1% | Residual activity (Vi/V0) ([5]; Fig. S3 panel a, inhibitor 1.985 nM, single replicates, 0.001985 µM): 0.3296 and 0.262 and 0.2126 | remaining activity at 0.001985 µM ([5]; Fig. S3 panel a, inhibitor 1.985 nM, single replicates, read-out: Residual activity (Vi/V0)): 22.7% | Residual activity (Vi/V0) ([5]; Fig. S3 panel a, inhibitor 3.572 nM, single replicates, 0.003572 µM): 0.1196 and 0.134 and 0.13 | remaining activity at 0.003572 µM ([5]; Fig. S3 panel a, inhibitor 3.572 nM, single replicates, read-out: Residual activity (Vi/V0)): 12.2% | Residual activity (Vi/V0) ([5]; Fig. S3 panel a, inhibitor 6.430 nM, single replicates, 0.00643 µM): 0.07914 and 0.03985 and 0.09073 and 0.08937 | Residual activity (Vi/V0) ([5]; Fig. S3 panel a, inhibitor 11.547 nM, single replicates, 0.011547 µM): 0.02749 and 0.03914 and 0.04269 | remaining activity at 0.011547 µM ([5]; Fig. S3 panel a, inhibitor 11.547 nM, single replicates, read-out: Residual activity (Vi/V0)): 3.75% | Residual activity (Vi/V0) ([5]; Fig. S3 panel a, inhibitor 20.833 nM, single replicates, 0.020833 µM): 0.006913 and 0.01907 and 0.01563 | Residual activity (Vi/V0) ([5]; Fig. S3 panel a, inhibitor 37.500 nM, single replicates, 0.0375 µM): -0.03871 and -0.04863 and 0.01233 and 0.01242 | Ki ([5]; mean with standard deviation and 95% confidence interval, pH 5.5, 37 °C): 0.061 nM | range of M^pro inhibition (in words) [6]: micromolar range | EC50 [7]: 183 ± 65 nM
